Laboratory results from patent publication US7138418B2, “Pentafluorobenzenesulfonamides and analogs” (Amgen, Inc., priority 1996, dated 2006).

Tested on: LDL receptor expression in Hep G2 cells
Experiment: LDL receptor expression in Hep G2 cells by western-blot analysis
Assay type: cell-based
Settings: Homo sapiens, HepG2, minimum concentration at which a maximal induction of LDL receptor was observed
Protocol: Compounds may be evaluated in vitro for their ability to increase LDL receptor expression using western-blot analysis, for example, as described in Tam et al. (1991) J. Biol. Chem. 266, 16764. Established animal models to evaluate hypocholesterolemic effects of compounds are known in the art. […] 81, 300; Evans et al. (1994) J. Lipid Res. 35, 1634; Lin et al (1995) J. Med. Chem. 38, 277.
Compounds were evaluated for their ability to increase LDL receptor expression in Hep G2 cells using western-blot analysis as described in Tam et al., J. Biol. Chem., 266, 16764 (1991).

| SMILES | EC (max) |
| --- | --- |
| CN(C)c1ccc(NS(=O)(=O)c2c(F)c(F)c(F)c(F)c2F)cc1 [Example 1, 4-(N,N-Dimethylamino)-1-pentafluorophenylsulfonamidobenzene] | 0.5 µM |
| CN(C)c1cccc(NS(=O)(=O)c2c(F)c(F)c(F)c(F)c2F)c1 [Example 2, 3-(N,N-Dimethylamino)-1-pentafluorophenylsulfonamidobenzene] | 5 µM |
| O=S(=O)(Nc1ccc2c(c1)OCCO2)c1c(F)c(F)c(F)c(F)c1F [Example 3, 1,2-Ethylenedioxy-4-pentafluorophenylsulfonamidobenzene] | 5 µM |
| O=S(=O)(Nc1ccc2c(c1)OCO2)c1c(F)c(F)c(F)c(F)c1F [Example 4, 1,2-Methylenedioxy-4-pentafluorophenylsulfonamidobenzene] | ≤ 5 µM |
| COc1ccc(NS(=O)(=O)c2c(F)c(F)c(F)c(F)c2F)cc1O [Example 6, 2-Hydroxy-1-methoxy-4-pentafluorophenylsulfonamidobenzene] | 0.15 µM |
| COc1ccc(NS(=O)(=O)c2c(F)c(F)c(F)c(F)c2F)cc1 [Example 8, 4-Methoxy-1-pentafluorophenylsulfonamidobenzene] | 0.5 µM |
| O=S(=O)(Nc1cccc(O)c1)c1c(F)c(F)c(F)c(F)c1F [Example 9, 3-Hydroxy-1-pentafluorophenylsulfonamidobenzene] | 5 µM |
| CCN(CC)c1ccc(NS(=O)(=O)c2c(F)c(F)c(F)c(F)c2F)cc1 [Example 12, 4-(N,N-Diethylamino)-1-pentafluorophenylsulfonamidobenzene] | 5 µM |
| O=S(=O)(Nc1ccc2[nH]ncc2c1)c1c(F)c(F)c(F)c(F)c1F [Example 15, 5-Pentafluorophenylsulfonamidoindazole] | 15 µM |
| CN(C)c1ccc(N(C)S(=O)(=O)c2c(F)c(F)c(F)c(F)c2F)cc1 [Example 17, 4-(N,N-Dimethylamino)-1-(N-methylpentafluorophenylsulfonamido)benzene] | 5 µM |
| COc1cccc(NS(=O)(=O)c2c(F)c(F)c(F)c(F)c2F)c1 [Example 24, 3-Methoxy-1-pentafluorophenylsulfonamidobenzene] | 15 µM |
| O=S(=O)(Nc1ccc(N2CCOCC2)cc1)c1c(F)c(F)c(F)c(F)c1F [Example 25, 4-(1-Morpholino)-1-pentafluorophenylsulfonamidobenzene] | 15 µM |
| COc1ccc(N(C)S(=O)(=O)c2c(F)c(F)c(F)c(F)c2F)cc1F [Example 30, 2-Fluoro-1-methoxy-4-(N-methylpentafluorophenylsulfonamido)benzene] | 15 µM |
| COc1ccc(NS(=O)(=O)c2c(F)c(F)c(F)c(F)c2F)cc1Br [Example 31, 2-Bromo-1-methoxy-4-pentafluorophenylsulfonamidobenzene] | ≤ 5 µM |
| COc1ccc(NS(=O)(=O)c2c(F)c(F)c(F)c(F)c2F)cc1Cl [Example 32, 2-Chloro-1-methoxy-4-pentafluorophenylsulfonamidobenzene] | 1.5 µM |

Tested on: not given
Experiment: not given
Settings: not given

| SMILES | melting point |
| --- | --- |
| COc1ccc(NS(=O)(=O)c2c(F)c(F)c(F)c(F)c2F)cc1 [Example 8, 4-Methoxy-1-pentafluorophenylsulfonamidobenzene] | 102 to 103 °C |
| O=S(=O)(Nc1ccc(Cl)nc1)c1c(F)c(F)c(F)c(F)c1F [Example 36, 2-Chloro-5-pentafluorophenylsulfonamidopyridine] | 144 to 145 °C |
| COc1ccc(N(CCCCCO)S(=O)(=O)c2c(F)c(F)c(F)c(F)c2F)cc1O [Example 37, 2-Hydroxy-1-methoxy-4-(N-(5-hydroxypentyl)-pentafluorophenylsulfonamido)benzene] | 118 °C |
| COc1cc(Br)c(NS(=O)(=O)c2c(F)c(F)c(F)c(F)c2F)cc1F [Example 41, 1-Bromo-4-fluoro-5-methoxy-2-pentafluorophenylsulfonamidobenzene] | 109 °C |
| COc1ccc(NS(=O)(=O)c2c(F)c(F)c(F)c(F)c2F)cc1C(F)(F)F [Example 49, 4-Methoxy-1-pentafluorophenylsulfonamido-3-trifluoromethylbenzene] | 121 to 123 °C |
| C=CCN(c1ccc(OC)cc1)S(=O)(=O)c1c(F)c(F)c(F)c(F)c1F [Example 50, 4-Methoxy-1-(N-(2-propenyl)pentafluorophenylsulfonamido)benzene] | 59 to 60 °C |
| C=CCCN(c1ccc(OC)cc1)S(=O)(=O)c1c(F)c(F)c(F)c(F)c1F [Example 51, 1-(N-(3-Butenyl)pentafluorophenylsulfonamido)-4-methoxybenzene] | 64 to 66 °C |
| COc1ccc(N(CC(O)CO)S(=O)(=O)c2c(F)c(F)c(F)c(F)c2F)cc1 (centres unmarked) [Example 53, 1-(N-(2,3-Dihydroxypropyl)pentafluorophenylsulfonamido)-4-methoxybenzene] | 130 to 131 °C |
| COc1ccc(N(CCC(O)CO)S(=O)(=O)c2c(F)c(F)c(F)c(F)c2F)cc1 (centres unmarked) [Example 54, 1-(N-(3,4-Dihydroxybutyl)pentafluorophenylsulfonamido)-4-methoxybenzene] | 126 to 128 °C |
| COc1ccc(N(CCCC(O)CO)S(=O)(=O)c2c(F)c(F)c(F)c(F)c2F)cc1 (centres unmarked) [Example 55, 1-(N-(4,5-Dihydroxypentyl)pentafluorophenylsulfonamido)-4-methoxybenzene] | 116 to 118 °C |
| COc1ccc(N(CCCCO)S(=O)(=O)c2c(F)c(F)c(F)c(F)c2F)cc1 [Example 56, 1-(N-(4-hydroxybutyl)pentafluorophenylsulfonamido)-4-methoxybenzene] | 88 to 90 °C |
| COc1ccc(N(CCCCCO)S(=O)(=O)c2c(F)c(F)c(F)c(F)c2F)cc1 [Example 57, 4-Methoxy-1-(N-(5-hydroxypentyl)pentafluorophenylsulfonamido)benzene] | 96 to 97 °C |
| COc1ccc(NS(=O)(=O)c2c(F)c(F)c(F)c(F)c2F)cc1[N+](=O)[O-] [Example 58, 4-Methoxy-3-nitro-1-pentafluorophenylsulfonamidobenzene] | 95 to 97 °C |
| COc1ccc(NS(=O)(=O)c2c(F)c(F)c(F)c(F)c2F)cc1N [Example 59, 3-Amino-4-methoxy-1-pentafluorophenylsulfonamidobenzene] | 142 to 143 °C |
